Our source for the EC50 and inhibition values is patent US7084155B2, “Chemokine receptor binding heterocyclic compounds” (AnorMED, priority 2000, dated 2006).

Assay type in all cases: cell-based
In one assay the test system is HIV-1 NL4.3 or IIIB. As to the kind of experiment: Inhibition of HIV-1 (NL4.3 or IIIB, CXCR4 using) replication in MT-4 cells, MTT viability. The following applies: Human immunodeficiency virus 1, IIIB, MT4, concentration protecting 50% of virus-infected cells against viral cytopathicity. A digest of the protocol:
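MT-4 cells infected at MOI 0.01 (100 × CCID50) with test compound at various concentrations, cytotoxicity run in parallel on uninfected cells. Viable cells quantified by MTT colorimetry after 5 days of proliferation. EC50 is the concentration protecting 50% of infected cells from viral cytopathicity.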
On the technique in general: Protection from cytopathic effect is a common read-out in antiviral testing.

The subject of the next assay is HIV-1 BaL. As to the kind of experiment: Inhibition of HIV-1 BaL (CCR5 using) replication in PHA-stimulated PBMC's, viral p24 antigen expression. The following applies: Human immunodeficiency virus 1, BAL.
In assay [1] the test system is SDF-1 induced Ca flux in SUP-T1 cells. As to the kind of experiment: Inhibition of chemokine (SDF-1) induced Ca flux measured on a FLIPR. The note with it: Homo sapiens. The method in brief:
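Fluo-3-loaded SUP-T1 cells (3×10^5 per well) preincubated with compound for 10 min at 37° C in HBSS/20 mM Hepes/0.2% BSA, pH 7.4, then stimulated with SDF-1. Fluorescence read on a FLIPR for 4 min after a 20-second baseline.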

Usually EC50 stands for the concentration needed to bring the measured effect to its halfway point. A word on the inhibition: it is how much of the control response was suppressed. Read a low inhibition as a weak effect. Take `c1ccc(-c2cnc(CN(Cc3ccc(CNCc4ccccn4)cc3)C3CCCc4cccnc43)[nH]2)cc1` (stereo not drawn) [Example 25, N-(2-pyridinylmethyl)-N′-(4-Phenyl-1H-imidazol-2-ylmethyl)-N′-(5,6,7,8-tetrahydro-8-quinolinyl)-1,4-benzenedimethanamine]: the EC50 with HIV-1 NL4.3 or IIIB and in the assay on HIV-1 BaL was below 20 µg/mL throughout. Also, the inhibition at 20 µg/mL in assay [1] is above 20%.
For `COc1cc(CNCc2ccc(CN(Cc3nc4ccccc4[nH]3)C3CCCc4cccnc43)cc2)nc2ccccc12` (stereo not drawn) [Example 64, N-(4-methoxy-2-quinolinylmethyl)-N′-(1H-benzimidazol-2-ylmethyl)-N′-(5,6,7,8-tetrahydro-8-quinolinyl)-1,4-benzenedimethanamine], the EC50 with HIV-1 NL4.3 or IIIB and in the assay on HIV-1 BaL was below 20 µg/mL throughout. The inhibition at 20 µg/mL in assay [1] is above 20%.
As for `COc1cccc(-c2cnc(CN(Cc3ccc(CNCc4ccccn4)cc3)C3CCCc4cccnc43)[nH]2)c1` (stereo not drawn) [Example 30, N-(2-Pyridinylmethyl)-N′-[5-(3-methoxyphenyl)-1H-imidazol-2-ylmethyl]-N′-(5,6,7,8-tetrahydro-8-quinolinyl)-1,4-benzenedimethanamine], the half-maximal effective concentration (EC50) in the assay with HIV-1 NL4.3 or IIIB and in the assay on HIV-1 BaL was below 20 µg/mL throughout. This molecule displayed an inhibition at 20 µg/mL in assay [1] above 20%.
As to `COc1cccc2[nH]c(CN(Cc3ccc(CNCc4ccccn4)cc3)C3CCCc4cccnc43)nc12` (stereo not drawn) [Example 13, N-(2-pyridinylmethyl)-N′-[4-methoxy-1H-benzimidazol-2-ylmethyl]-N′-(5,6,7,8-tetrahydro-8-quinolinyl)-1,4-benzenedimethanamine], the half-maximal effective concentration (EC50) in the assay with HIV-1 NL4.3 or IIIB and with HIV-1 BaL was below 20 µg/mL in each case. In assay [1], this molecule displayed an inhibition at 20 µg/mL above 20%.
Consider `c1ccc(N[C@H]2CCCC[C@H]2NCc2ccc(CNCc3ccccn3)cc2)cc1` (relative stereo) [Example 132, N-(2-pyridinylmethyl)-N′-[cis-2-(N-phenylamino)cyclohexyl]-1,4-benzenedimethanamine], for which the EC50 in the assay with HIV-1 NL4.3 or IIIB and with HIV-1 BaL was below 20 µg/mL throughout. This molecule also yielded an inhibition at 20 µg/mL in assay [1] above 20%.
On to `Oc1cccnc1CNCc1ccc(CN(Cc2nc3ccccc3[nH]2)C2CCCc3cccnc32)cc1` (stereo not drawn) [Example 55, N-(3-hydroxy-2-pyridinylmethyl)-N′-(1H-benzimidazol-2-ylmethyl)-N′-(5,6,7,8-tetrahydro-8-quinolinyl)-1,4-benzenedimethanamine], for which the EC50 in the assay with HIV-1 NL4.3 or IIIB and in the assay with HIV-1 BaL was below 20 µg/mL throughout. The molecule also yielded an inhibition at 20 µg/mL in assay [1] above 20%.
